# Measured values as given in patent publication US10562912B2 (C&C Research Laboratories, priority 2013, dated 2020).
# Columns and labels:
# Format in all cases: cell-based
# STAT3 = biological target: T1, STAT3 (Homo sapiens, UniProt P40763); test: STAT3 reporter gene assay (luciferase), LNCaP stable cell line (pSTAT3-TA-luc), IL-6 stimulation
# T1 construct: plasmid pSTAT3-TA-luc), which contains a stably operating STAT3 promoter; endogenous in cells
# Method in brief: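 LNCaP cells stably carrying pSTAT3-TA-luc, in RPMI1640 with 3% DCC-FBS, were treated with compound and then stimulated with 10 ng/mL IL-6 for 24–48 h at 37 °C. Luciferase activity was measured in lysates. A parallel plate measured viability by CellTiter-Glo, with stimulated 0.1% DMSO wells as the positive control.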
# AGS = test: Cell growth inhibition assay, stomach cancer cell line AGS; conditions: Homo sapiens; AGS stomach cancer cell line, 3,000 cells/well
# Method: The inhibitory effects of the compounds of the present invention against the growth of cancer cells were evaluated as shown below. The cancer cell lines including stomach cancer cell line (AGS), breast cancer cell lines (MDA-MB-231, MDA-MB-468, and BT-549), prostate cancer cell lines (LNCaP and DU-145), colon cancer cell line (HCT116), ovarian cancer cell line (SW626), liver cancer cell line (Hep3B), kidney cancer cell line (ACHN), lung cancer cell line (NCI-H23) and blood cancer cell lines (HEL92.1.7 and U266) were cultured under the protocol provided by each supplier. A medium supplemented with 10 ng/mL of IL-6 was used for LNCaP, a prostate cancer cell line, when treated with a drug. Each type of cells to be used in experiments were sub-cultured in a 96-well plate by counting the exact number of cells using Tali™ Image-based Cytometer (Life Technologies). In a 96-well plate, AGS, HCT116, and DU-145 were employed with 3,000 cells/well; NCI-H23, SW626, Hep3B, ACHN, BT-549, MDA-MB-231, HEL92.1.7, and U266 were employed with 5,000 cells/well; and LNCaP and MDA-MB-468 were employed with 10,000 cells/well. The cells were treated with the compounds listed in Examples which were diluted in various concentrations. Upon completion of the compounds treatment, AGS, HCT116, SW626, DU145, NCI-H23, Hep3B, ACHN, BT-549, LNCaP, HEL92.1.7, and U266 cells were cultured at 37° C. under 5% CO2 for from 72 to 96 hours, and MDA-MB-231 and MDA-MB-468 cells were cultured at 37° C. in air for from 72 to 96 hours. Subsequently, the cells were observed under microscope and drug precipitation and particular findings were investigated and recorded. And then, the 96-well plate was placed at room temperature for 30 minutes, added with 20 μL/well of CellTiter-Glo solution (Cat No. G7573, Promega) and shaken for 10 minutes, followed by being subjected to the measurement using PHERAstar™ microplate reader (BMG LABTECH) according to the supplier's general luminometer protocol. Wells where only culture liquid added without cell plating were used as a negative control, whereas wells where culture liquid containing 0.1% DMSO instead of the compounds listed in Examples were used as a positive control.
# LNCaP = test: Cell growth inhibition assay, prostate cancer cell line LNCaP (medium with 10 ng/mL IL-6); conditions: Homo sapiens, medium supplemented with 10 ng/mL of IL-6, 10,000 cells/well
# T1 sequence (P40763 whole entry): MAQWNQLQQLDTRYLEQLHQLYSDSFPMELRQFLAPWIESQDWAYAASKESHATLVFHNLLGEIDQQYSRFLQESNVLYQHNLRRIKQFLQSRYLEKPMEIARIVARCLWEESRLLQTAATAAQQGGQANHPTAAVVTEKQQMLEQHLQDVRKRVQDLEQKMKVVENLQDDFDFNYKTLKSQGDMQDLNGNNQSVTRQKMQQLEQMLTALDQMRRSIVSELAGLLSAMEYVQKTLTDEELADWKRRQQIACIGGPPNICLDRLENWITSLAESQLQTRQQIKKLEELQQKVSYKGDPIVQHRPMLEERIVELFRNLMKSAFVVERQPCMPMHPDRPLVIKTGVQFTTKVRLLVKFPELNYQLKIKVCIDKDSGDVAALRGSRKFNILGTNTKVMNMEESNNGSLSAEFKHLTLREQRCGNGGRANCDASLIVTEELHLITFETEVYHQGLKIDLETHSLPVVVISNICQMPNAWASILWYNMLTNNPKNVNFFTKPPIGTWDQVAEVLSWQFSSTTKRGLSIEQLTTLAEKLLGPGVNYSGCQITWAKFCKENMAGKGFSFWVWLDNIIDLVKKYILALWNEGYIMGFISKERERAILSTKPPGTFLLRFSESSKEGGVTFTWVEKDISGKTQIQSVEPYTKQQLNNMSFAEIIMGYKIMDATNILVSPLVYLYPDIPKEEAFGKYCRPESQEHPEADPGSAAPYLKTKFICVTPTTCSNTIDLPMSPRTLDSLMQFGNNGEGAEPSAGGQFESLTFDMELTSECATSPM
Structure (SMILES),IC50 (STAT3) [µM],IC50 (AGS) [µM],IC50 (LNCaP) [µM]
"O=C(Nc1cccc(-c2ccccc2C(F)(F)F)c1)c1cc2ccc([N+](=O)[O-])cc2n1CCN1CCOCC1 [Example 252, 1-(2-morpholinoethyl)-6-nitro-N-(2′-(trifluoromethyl)-[1,1′-biphenyl]-3-yl)-1H-indole-2-carboxamide]",> 10,11.4,> 10
"Cn1c(C(=O)Nc2cccc(-c3ccccc3C(F)(F)F)c2)cc2ccc(NS(C)(=O)=O)cc21 [Example 253, 1-methyl-6-(methylsulfonamido)-N-(2′-(trifluoromethyl)-[1,1′-biphenyl]-3-yl)-1H-indole-2-carboxamide]",4.7,7.6,8.5
"CC(C)(Oc1ccc2cc(C(=O)Nc3cccc(-c4ccc(F)cc4F)c3)[nH]c2c1)C(=O)O [Example 254, 2-((2-((2′,4′-difluoro-[1,1′-biphenyl]-3-yl)carbamoyl)-1H-indol-6-yl)oxy)-2-methylpropanoic acid]",> 10,> 50,> 10
"CCOC(=O)COc1ccc2cc(C(=O)Nc3cccc(-c4ccc(F)cc4F)c3)[nH]c2c1 [Example 255, ethyl 2-((2-((2′,4′-difluoro-[1,1′-biphenyl]-3-yl)carbamoyl)-1H-indol-6-yl)oxy)acetate]",> 10,18.1,> 10
"O=C(O)COc1ccc2cc(C(=O)Nc3cccc(-c4ccc(F)cc4F)c3)[nH]c2c1 [Example 256, 2-((2-((2′,4′-difluoro-[1,1′-biphenyl]-3-yl)carbamoyl)-1H-indol-6-yl)oxy)acetic acid]",> 10,> 50,> 10
"CNS(=O)(=O)Nc1ccc2cc(C(=O)Nc3cccc(-c4ccc(F)cc4F)c3)[nH]c2c1 [Example 257, N-(2′,4′-difluoro-[1,1′-biphenyl]-3-yl)-6-((N-methylsulfamoyl)amino)-1H-indole-2-carboxamide]",3.5,11,2.8
"Nc1ccc2[nH]c(C(=O)Nc3cccc(-c4ccccc4C(F)(F)F)c3)cc2c1 [Example 258, 5-amino-N-(2′-(trifluoromethyl)-[1,1′-biphenyl]-3-yl)-1H-indole-2-carboxamide]",2.7,16.3,5.2
"CS(=O)(=O)Nc1ccc2c(c1)NC(C(=O)Nc1cccc(-c3ccc(F)cc3F)c1)C2 (stereo not drawn) [Example 261, N-(2′,4′-difluoro-[1,1′-biphenyl]-3-yl)-6-(methylsulfonamido)indoline-2-carboxamide]",2.4,28.4,2.9
"CS(=O)(=O)Nc1ccc2c(c1)NC(C(=O)Nc1cccc(-c3ccc(F)cc3C(F)(F)F)c1)C2 (stereo not drawn) [Example 262, N-(4′-fluoro-2′-(trifluoromethyl)-[1,1′-biphenyl]-3-yl)-6-(methylsulfonamido)indoline-2-carboxamide]",5.3,> 50,9.8
"CC(C)(C)OC(=O)n1c(C(=O)Nc2cccc(-c3ccccc3C(F)(F)F)c2)cc2ccc([N+](=O)[O-])cc21 [Example 263, tert-butyl 6-nitro-2-((2′-(trifluoromethyl)-[1,1′-biphenyl]-3-yl)carbamoyl)-1H-indole-1-carboxylate]",> 10,> 50,8
"O=C(Nc1cccc(-c2ccccc2C(F)(F)F)c1)c1cc2ccc(NS(=O)(=O)CC(F)(F)F)cc2[nH]1 [Example 264, 6-(2,2,2-trifluoroethylsulfonamido)-N-(2′-(trifluoromethyl)-[1,1′-biphenyl]-3-yl)-1H-indole-2-carboxamide]",1.9,13,6.2
"NS(=O)(=O)Nc1ccc2cc(C(=O)Nc3cccc(-c4ccccc4C(F)(F)F)c3)[nH]c2c1 [Example 265, 6-(sulfamoylamino)-N-(2′-(trifluoromethyl)-[1,1′-biphenyl]-3-yl)-1H-indole-2-carboxamide]",4.2,11.4,> 10
"CS(=O)(=O)Nc1ccc2c(C(=O)Nc3cccc(-c4ccccc4C(F)(F)F)c3)c[nH]c2c1 [Example 266, 6-(methylsulfonamido)-N-(2′-(trifluoromethyl)-[1,1′-biphenyl]-3-yl)-1H-indole-3-carboxamide]",6.8,8.5,> 10
"CN(C)S(=O)(=O)Nc1ccc2cc(C(=O)Nc3cccc(-c4ccccc4C(F)(F)F)c3)[nH]c2c1 [Example 267, 6-((N,N-dimethylsulfamoyl)amino)-N-(2′-(trifluoromethyl)-[1,1′-biphenyl]-3-yl)-1H-indole-2-carboxamide]",2,9.2,3.2
"O=C(Nc1cccc(-c2ccccc2C(F)(F)F)c1)c1cc2ccc(NS(=O)(=O)C(F)(F)F)cc2[nH]1 [Example 268, N-(2′-(trifluoromethyl)-[1,1′-biphenyl]-3-yl)-6-(trifluoromethylsulfonamido)-1H-indole-2-carboxamide]",> 10,27.1,> 10
"Nc1ccc2cc(C(=O)Nc3cccc(-c4ccc(F)cc4F)c3)[nH]c2c1 [Example 271, 6-amino-N-(2′,4′-difluoro-[1,1′-biphenyl]-3-yl)-1H-indole-2-carboxamide]",5.9,26.1,8.6
"CS(=O)(=O)Nc1ccc2[nH]c(C(=O)Nc3cccc(-c4ccc(F)cc4F)c3)cc2c1 [Example 272, N-(2′,4′-difluoro-[1,1′-biphenyl]-3-yl)-5-(methylsulfonamido)-1H-indole-2-carboxamide]",0.5,18.8,2.6
"O=C(Nc1cccc(-c2ccc(F)cc2F)c1)c1cc2ccc(NS(=O)(=O)CC(F)(F)F)cc2[nH]1 [Example 273, N-(2′,4′-difluoro-[1,1′-biphenyl]-3-yl)-6-(2,2,2-trifluoroethylsulfonamido)-1H-indole-2-carboxamide]",2.2,10,4.1
"NS(=O)(=O)Nc1ccc2cc(C(=O)Nc3cccc(-c4ccc(F)cc4F)c3)[nH]c2c1 [Example 274, N-(2′,4′-difluoro-[1,1′-biphenyl]-3-yl)-6-(sulfamoylamino)-1H-indole-2-carboxamide]",> 10,17.9,> 10
"CN(C)S(=O)(=O)Nc1ccc2cc(C(=O)Nc3cccc(-c4ccc(F)cc4F)c3)[nH]c2c1 [Example 276, N-(2′,4′-difluoro-[1,1′-biphenyl]-3-yl)-6-((N,N-dimethylsulfamoyl)amino)-1H-indole-2-carboxamide]",3.1,11.9,1.3
"CS(=O)(=O)Nc1ccc2cc(C(=O)Nc3cccc(-c4ccc(F)cc4C(F)(F)F)c3)[nH]c2c1 [Example 277, N-(4′-fluoro-2′-(trifluoromethyl)-[1,1′-biphenyl]-3-yl)-6-(methylsulfonamido)-1H-indole-2-carboxamide]",0.38,2.1,1.8
"O=C(Nc1cc(-c2ccc(F)cc2F)ccn1)c1cc2ccc(NS(=O)(=O)C3CC3)cc2[nH]1 [Example 278, 6-(cyclopropanesulfonamido)-N-(4-(2,4-difluorophenyl)pyridin-2-yl)-1H-indole-2-carboxamide]",4.5,20,5.9
"CS(=O)(=O)Nc1ccc2cc(C(=O)Nc3cc(-c4ccc(F)cc4F)ccn3)[nH]c2c1 [Example 279, N-(4-(2,4-difluorophenyl)pyridin-2-yl)-6-(methylsulfonamido)-1H-indole-2-carboxamide]",6.2,40.7,> 10
"CN(C(=O)c1cc2ccc(NS(C)(=O)=O)cc2[nH]1)c1cccc(-c2ccc(F)cc2F)c1 [Example 280, N-(2′,4′-difluoro-[1,1′-biphenyl]-3-yl)-N-methyl-6-(methylsulfonamido)-1H-indole-2-carboxamide]",1.7,2.7,2.7
"COc1ccc(C(F)(F)F)c(-c2cccc(NC(=O)c3cc4ccc(NS(C)(=O)=O)cc4[nH]3)c2)c1 [Example 281, N-(5′-methoxy-2′-(trifluoromethyl)-[1,1′-biphenyl]-3-yl)-6-(methylsulfonamido)-1H-indole-2-carboxamide]",7.1,16.6,> 10
